Data published in patent US20260363244A1, “HERBICIDAL COMPOSITIONS COMPRISING URACILS” (BASF SE, priority 2022, published 2026).
Where two headings read alike, the source gives them in different places.

Experiments:
Format in all cases: in vivo
Abutilon theophrasti = assay: greenhouse post-emergence herbicidal activity, ABUTH; details: read-out: % activity (solo application); for activity at 0.5 g/ha: 0.5 gai/ha; for activity at 0.4 g/ha: 0.4 gai/ha; for activity at 0.8 g/ha: 0.8 gai/ha
Procedure: (§1) The following examples serve to illustrate the invention.
(§2) The culture containers used were plastic pots containing loamy sand with approximately 3.0% of humus as substrate. The seeds of the test plants were sown separately for each species.
(§3) For the post-emergence treatment, the test plants were grown to a plant height of from 3 to 15 cm, depending on the plant habit, and only then treated with the active compounds which had been suspended or emulsified in water. To this end, the test plants were either sown directly, and grown in the same containers, or they were first grown separately as seedlings and transplanted into the test containers a few days prior to treatment.
(§4) Depending on the species, the plants were kept at 10-25 °C and 20-35 °C, respectively. The test period extended over 2 to 4 weeks. During this time, the plants were tended and their response to the individual treatments was evaluated.
(§5) Evaluation was carried out using a scale from 0 to 100. 100 means no emergence of the plants, or complete destruction of at least the above-ground parts, and 0 means no damage or normal course of growth. A good herbicidal activity is given at values of at least 70, and very good herbicidal activity is given at values of at least 85.
(§6) The respective stated components A and B, and if appropriate, C were formulated as a 5% by weight strength emulsion concentrate and, with addition of the amount of solvent system, introduced into the spray liquor used for applying the active compound. In the examples, the solvent used was water.
(§7) In the examples below, using the method of S. R. Colby (1967) “Calculating synergistic and antagonistic responses of herbicide combinations”, Weeds 15, p. 22ff., the value E, which is expected if the activity of the individual active compounds is only additive, was calculated.
(§8) E=X+Y−(X·Y/100) • where • X=percent activity using active compound A at an application rate a; • Y=percent activity using active compound B at an application rate b; • E=expected activity (in %) by A+B at application rates a+b.
(§9) The plants used in the greenhouse experiments were of the following species
(§10) In this context, a.i. means active ingredient, based on 100% active ingredient.
(§11) As indicated the application was post emergent (POST) at the respective growth stage (GS) of the weed.
(§12) Assessment was at the indicated days after treatment (DAT).

Amaranthus tamariscinus = assay: greenhouse post-emergence herbicidal activity, AMATA; details: read-out: % activity (solo application); for activity at 0.5 g/ha: 0.5 gai/ha; for activity at 0.2 g/ha: 0.2 gai/ha
Procedure: as §1, §2, §3, §4, §5, §6, §7, §8, §9, §10, §11, §12

Avena fatua = assay: greenhouse post-emergence herbicidal activity, AVEFA; details: read-out: % activity (solo application); for activity at 0.8 g/ha: 0.8 gai/ha; for activity at 0.5 g/ha: 0.5 gai/ha
Procedure: as §1, §2, §3, §4, §5, §6, §7, §8, §9, §10, §11, §12

Brachiaria decumbens = assay: greenhouse post-emergence herbicidal activity, BRADC; details: Urochloa decumbens, post-emergence, 1.6 gai/ha, read-out: % activity (solo application)
Procedure: as §1, §2, §3, §4, §5, §6, §7, §8, §9, §10, §11, §12

Commenline benghalensis = assay: greenhouse post-emergence herbicidal activity, COMBE; details: read-out: % activity (solo application)
Procedure: as §1, §2, §3, §4, §5, §6, §7, §8, §9, §10, §11, §12

Digitaria sanguinales = assay: greenhouse post-emergence herbicidal activity, DIGSA; details: Digitaria, post-emergence, read-out: % activity (solo application)
Procedure: as §1, §2, §3, §4, §5, §6, §7, §8, §9, §10, §11, §12

Echinocloa crus-galli = assay: greenhouse post-emergence herbicidal activity, ECHCG; details: Echinochloa crus-galli, post-emergence, read-out: % activity (solo application)
Procedure: as §1, §2, §3, §4, §5, §6, §7, §8, §9, §10, §11, §12

Eleusine indica = assay: greenhouse post-emergence herbicidal activity, ELEIN; details: read-out: % activity (solo application); for activity at […]: 1.6 gai/ha
Procedure: as §1, §2, §3, §4, §5, §6, §7, §8, §9, §10, §11, §12

Kochia scoparia = assay: greenhouse post-emergence herbicidal activity, KCHSC; details: Bassia scoparia, post-emergence, read-out: % activity (solo application); for activity at 0.4 g/ha: 0.4 gai/ha; for activity at 0.8 g/ha: 0.8 gai/ha
Procedure: as §1, §2, §3, §4, §5, §6, §7, §8, §9, §10, §11, §12

Lolium multiflorum = assay: greenhouse post-emergence herbicidal activity, LOLMU; details: Lolium multiflorum, post-emergence, read-out: % activity (solo application); for activity at […]: 1.6 gai/ha
Procedure: as §1, §2, §3, §4, §5, §6, §7, §8, §9, §10, §11, §12

Setaria faberi = assay: greenhouse post-emergence herbicidal activity, SETFA; details: for % activity (solo application) / activity at 0.5 g/ha: 0.5 gai/ha; for activity at […]: 0.25 gai/ha
Procedure: as §1, §2, §3, §4, §5, §6, §7, §8, §9, §10, §11, §12

Setaria viridis = assay: greenhouse post-emergence herbicidal activity, SETVI; details: Setaria viridis, post-emergence, read-out: % activity (solo application); for activity at 0.5 g/ha: 0.5 gai/ha; for activity at 0.2 g/ha: 0.2 gai/ha; for activity at 0.4 g/ha: 0.4 gai/ha
Procedure: as §1, §2, §3, §4, §5, §6, §7, §8, §9, §10, §11, §12

Sorghum halepense = assay: greenhouse post-emergence herbicidal activity, SORHA; details: Sorghum halepense, post-emergence, 480 h, GS 11-33, 20 DAT, read-out: % activity (solo application)
Procedure: as §1, §2, §3, §4, §5, §6, §7, §8, §9, §10, §11, §12

[1] = 168 h, GS 11-33, 7 DAT, 0.2 gai/ha
[2] = 168 h, GS 11-33, 7 DAT, 1.6 gai/ha
[3] = 168 h, GS 12-16, 7 DAT, 0.25 gai/ha
[4] = 480 h, GS 11-33, 20 DAT, 1.6 gai/ha
[5] = 480 h, GS 12-16, 20 DAT, 0.25 gai/ha
[6] = 144 h, GS 12-16, 6 DAT, 0.25 gai/ha
[7] = 480 h, GS 11-33, 20 DAT, 0.2 gai/ha
[8] = 144 h, GS 12-16, 6 DAT, 0.5 gai/ha
[9] = 480 h, GS 12-16, 20 DAT, 0.5 gai/ha
[10] = Setaria faberi, post-emergence, 144 h, GS 12-16, 6 DAT, read-out: % activity (solo application)
[11] = Setaria faberi, post-emergence, 480 h, GS 12-16, 20 DAT, read-out: % activity (solo application)

CCOC(=O)COc1ccccc1Oc1nc(-n2c(=O)cc(C(F)(F)F)n(C)c2=O)c(F)cc1Cl [(I.3)]
30%: activity at […] (Avena fatua; [4]) | activity at 0.4 g/ha (Digitaria sanguinales; 192 h, GS 11-33, 8 DAT, 0.4 gai/ha) | activity at 0.4 g/ha (Kochia scoparia; 480 h, GS 11-33, 20 DAT) | activity at […] (Lolium multiflorum; 168 h, GS 11-33, 7 DAT) | activity at […] (Setaria viridis; [5]) | activity at 0.8 g/ha (Sorghum halepense; 0.8 gai/ha) | activity at […] (Sorghum halepense; 1.6 gai/ha)
70%: activity at 0.2 g/ha (Amaranthus tamariscinus; 168 h, GS 11-33, 7 DAT) | activity at […] (Amaranthus tamariscinus; [5]) | activity at 0.5 g/ha (Setaria faberi; Setaria faberi, post-emergence, 504 h, GS 12-16, 21 DAT, read-out: % activity (solo application))
95%: activity at 0.5 g/ha (Abutilon theophrasti; 144 h, GS 12-16, 6 DAT) | activity at […] (Commenline benghalensis; [4]) | activity at […] (Eleusine indica; 168 h, GS 11-33, 7 DAT) | activity at […] (Setaria viridis; 192 h, GS 11-33, 8 DAT, 1.6 gai/ha)
85%: activity at 0.4 g/ha (Abutilon theophrasti; 168 h, GS 11-33, 7 DAT) | activity at 0.8 g/ha (Abutilon theophrasti; 168 h, GS 11-33, 7 DAT) | activity at […] (Abutilon theophrasti; [3]) | activity at […] (Abutilon theophrasti; 504 h, GS 12-16, 21 DAT, 0.25 gai/ha) | activity at 0.5 g/ha (Amaranthus tamariscinus; 480 h, GS 12-16, 20 DAT) | activity at 0.5 g/ha (Setaria viridis; 480 h, GS 12-16, 20 DAT)
10%: activity at 0.2 g/ha (Avena fatua; [7]) | activity at […] (Avena fatua; [5]) | activity at 0.2 g/ha (Digitaria sanguinales; [7]) | activity at 0.8 g/ha (Lolium multiflorum; 480 h, GS 11-33, 20 DAT, 0.8 gai/ha) | activity at […] (Lolium multiflorum; 480 h, GS 11-33, 20 DAT) | activity at 0.4 g/ha (Setaria viridis; 480 h, GS 11-33, 20 DAT) | activity at 0.2 g/ha (Sorghum halepense; 0.2 gai/ha)
65%: activity at 0.5 g/ha (Setaria faberi; [10])
80%: activity at 0.2 g/ha (Abutilon theophrasti; [1]) | activity at 0.4 g/ha (Abutilon theophrasti; 480 h, GS 11-33, 20 DAT) | activity at 0.8 g/ha (Abutilon theophrasti; 480 h, GS 11-33, 20 DAT) | activity at 0.4 g/ha (Setaria faberi; Setaria faberi, post-emergence, 480 h, GS 11-33, 20 DAT, 0.4 gai/ha, read-out: % activity (solo application))
55%: activity at 0.5 g/ha (Echinocloa crus-galli; [8]) | activity at 0.8 g/ha (Kochia scoparia; 480 h, GS 11-33, 20 DAT) | activity at […] (Setaria faberi; [10]) | activity at […] (Setaria faberi; [11]) | activity at 0.5 g/ha (Setaria faberi; [11])
35%: activity at […] (Avena fatua; [6]) | activity at […] (Avena fatua; [3]) | activity at 0.5 g/ha (Digitaria sanguinales; [9]) | activity at 0.5 g/ha (Eleusine indica; [9]) | activity at […] (Setaria viridis; [6])
90%: activity at […] (Abutilon theophrasti; [2]) | activity at 0.5 g/ha (Abutilon theophrasti; 168 h, GS 12-16, 7 DAT) | activity at […] (Abutilon theophrasti; [4]) | activity at 0.5 g/ha (Amaranthus tamariscinus; 144 h, GS 12-16, 6 DAT) | activity at […] (Amaranthus tamariscinus; [4]) | activity at 0.5 g/ha (Commenline benghalensis; [8]) | activity at […] (Eleusine indica; 480 h, GS 11-33, 20 DAT) | activity at […] (Setaria viridis; [4])
60%: activity at […] (Commenline benghalensis; [5]) | activity at […] (Echinocloa crus-galli; [2]) | activity at […] (Echinocloa crus-galli; [4]) | activity at 0.4 g/ha (Kochia scoparia; 168 h, GS 11-33, 7 DAT) | % activity (solo application) (Setaria faberi; GS 12-16, 6 DAT) | % activity (solo application) (Setaria faberi; GS 12-16, 20 DAT) | activity at 0.5 g/ha (Setaria viridis; 144 h, GS 12-16, 6 DAT)
15%: activity at 0.8 g/ha (Avena fatua; 480 h, GS 11-33, 20 DAT) | activity at 0.2 g/ha (Kochia scoparia; [7]) | activity at 0.2 g/ha (Setaria faberi; Setaria faberi, post-emergence, 480 h, GS 11-33, 20 DAT, 0.2 gai/ha, read-out: % activity (solo application))
25%: activity at 0.8 g/ha (Avena fatua; 168 h, GS 11-33, 7 DAT) | activity at 0.5 g/ha (Avena fatua; 480 h, GS 12-16, 20 DAT) | activity at 0.4 g/ha (Setaria viridis; 192 h, GS 11-33, 8 DAT)
5%: activity at 0.2 g/ha (Lolium multiflorum; [7]) | activity at 0.2 g/ha (Setaria viridis; 480 h, GS 11-33, 20 DAT)
75%: activity at 0.8 g/ha (Kochia scoparia; 168 h, GS 11-33, 7 DAT) | activity at […] (Kochia scoparia; [4]) | activity at 0.5 g/ha (Setaria faberi; Setaria faberi, post-emergence, 168 h, GS 12-16, 7 DAT, read-out: % activity (solo application))
20%: activity at 0.2 g/ha (Commenline benghalensis; [1]) | activity at 0.2 g/ha (Eleusine indica; [7]) | activity at 0.2 g/ha (Setaria viridis; 192 h, GS 11-33, 8 DAT) | activity at 0.4 g/ha (Sorghum halepense; 0.4 gai/ha)
40%: activity at 0.2 g/ha (Amaranthus tamariscinus; 480 h, GS 11-33, 20 DAT) | activity at […] (Avena fatua; [2]) | activity at 0.5 g/ha (Avena fatua; 168 h, GS 12-16, 7 DAT) | activity at […] (Brachiaria decumbens; 480 h, GS 11-33, 20 DAT) | activity at […] (Commenline benghalensis; [6]) | activity at […] (Echinocloa crus-galli; [6]) | activity at […] (Kochia scoparia; [5])
50%: activity at […] (Brachiaria decumbens; 192 h, GS 11-33, 8 DAT)
